Tests used:
wild type IDH1 = target: T1, wild type IDH1 (Homo sapiens, UniProt O75874); experiment: wild type IDH1 enzyme activity at varying Mg2+ concentrations (FIG. 19); assay type: cell-based; settings: 1 μM, Mg2+ below 0.4 mM
T1 construct: endogenous in cells; host or cells: MiaPaCa2
From the text: In one embodiment, the cancer treated in accordance with any of the invention's methods contains cancer cells having a lower Magnesium^2+ (Mg^2+) concentration compared to Mg^2+ concentration in serum, such as serum from the subject and/or serum from a control subject lacking cancer.

[1] = test system: pancreatic cancer cell line (Panc1) cells; experiment: reactive oxygen species (ROS) levels in Panc1 cells; assay type: cell-based; settings: 1 μM, zero mM magnesium ion, 2.5 mM glucose, Panc1, 48 hours
Method: ROS levels were measured by measuring 2′,7′-dichlorodihydrofluorescein diacetate (DCFDA) or MitoSOX as previously described (Zarei et al. (2017) Cancer Res; 77(16) 4460-4471).
Importantly, these low magnesium ion and low glucose conditions were consistent with the pancreatic cancer tumor microenvironment (FIG. 6).

[2] = test system: wild type IDH1 pancreatic cancer (MiaPaCa2 cell line) xenografts; experiment: pancreatic xenograft study (MiaPaCa2); assay type: in vivo, mice; settings: oral 150 mg/kg
From the text: FIG. 7. […] No toxicity to mice occurred at these oral doses.
No toxicity was observed.

[3] = 500 mg daily in humans; cited from earlier work

T1 sequence (O75874 2-414): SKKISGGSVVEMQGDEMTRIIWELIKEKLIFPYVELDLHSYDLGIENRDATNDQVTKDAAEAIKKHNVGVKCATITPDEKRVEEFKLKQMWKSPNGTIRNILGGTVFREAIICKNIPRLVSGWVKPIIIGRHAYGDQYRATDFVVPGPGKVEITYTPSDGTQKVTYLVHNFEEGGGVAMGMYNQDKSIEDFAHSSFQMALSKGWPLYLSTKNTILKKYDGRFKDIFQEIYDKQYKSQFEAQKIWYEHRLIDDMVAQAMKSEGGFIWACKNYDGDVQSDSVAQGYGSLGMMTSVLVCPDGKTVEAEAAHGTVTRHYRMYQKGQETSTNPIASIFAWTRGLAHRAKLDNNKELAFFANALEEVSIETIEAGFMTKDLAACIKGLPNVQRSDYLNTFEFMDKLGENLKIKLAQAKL

## N#Cc1ccnc(N2C(=O)CC[C@H]2C(=O)N(c2cncc(F)c2)[C@H](C(=O)NC2CC(F)(F)C2)c2ccccc2Cl)c1 [AG-120, Ivosidenib]
Wild type IDH1
  reduction of wild type IDH1 enzyme activity: 50%
[1]
  increase in ROS: 3 fold
[2]
  toxicity to mice: No toxicity
[3]
  plasma concentration: 130 µM

From patent US12168005B2, “Methods for treating wild type isocitrate dehydrogenase 1 cancers” (University Hospitals Cleveland Medical Center, priority 2019, dated 2024)
